Measured values as given in US20210113522A1, “COUMARIN DERIVATIVE AS ANTI-ASTHMATIC AGENT, PHARMACEUTICAL COMPOSITION THEREOF, ITS PREPARATION AND USE” (I-NOVA MEDICINSKA ISTRAZIVANJA D.O.O., priority 2017, published 2021).

Test system: croton oil-induced ear edema
Experiment: Croton oil-induced ear edema in mice
Type: in vivo, Balb/c mice
Details: dexamethasone 1 mg/kg, 1 2 mg/kg
Text: The presents study aims to detect the inflammatory/anti-inflammatory potential effects of compound 1 in a model of acute skin inflammation induced by local application of phlogistic agent croton oil in Balb/c mice. The technique for croton oil-induced ear edema in mice, originally described by Tubaro et al., was followed, with modifications; see literature references 16 and 17: • 16) A. Tubaro, P. Dri, G. Delbello, C. Zilli, R. Della Loggia: The croton oil ear test revisited, Agents Actions 17 (1986) 347-349. • 17) G. Coruzzi, C. Pozzoli, M. Adami, D. Grandi, N. Guido, R. Smits, I. de Esch and R. Leurs: Strain-dependent effects of the histamine H4 receptor antagonist JNJ7777120 in a murine model of acute skin inflammation, Experimental Dermatology 21 (2011) 32-37.
Mice (total 40) were separated into 4 groups (n=10). Each group was treated under different regimen:
Cutaneous inflammation was induced in conscious mice by topical application of croton oil (5% in acetone).
Six hours after croton oil application, mice were euthanized by light ether anaesthesia, followed by cervical dislocation; both left (acetone) and right (croton oil in acetone) ears were removed, by cutting horizontally across the indentation at the base of the ear. For each mouse, the extent of the oedema was expressed as the difference in weight (Δ [mg]) between right (inflamed) and left (uninflamed) ear. The percentage increase in the oedema of the treated ear was calculated by the following formula: […]
The presents study aims to detect the inflammatory/anti-inflammatory potential effects of compound 1 in a model of acute skin inflammation induced by local application of phlogistic agent croton oil in Balb/c mice. The technique for croton oil-induced ear edema in mice, originally described by Tubaro et al., was followed, with modifications; see literature references 16 and 17.
In preliminary experiments, the effect of subcutaneous (s.c.) administration of saline, 100% DMSO or 20% 2-hydroxypropyl-β-cyclodextrin was investigated to check the vehicle effects on ear inflammation.
The statistical significance between the groups was assessed by one-way analysis of variance (ANOVA) followed by a post hoc Tukey test. The accepted level of significance for the test was P<0.05. All tests were carried out using GraphPad Software (San Diego, Calif., USA).

With C[C@@H]1C[C@H]2[C@@H]3CCC4=CC(=O)C=C[C@]4(C)[C@@]3(F)[C@@H](O)C[C@]2(C)[C@@]1(O)C(=O)CO [dexamethasone, reference compound] the “Percentage of increasing the ear edema” value (6 h after croton oil) was 44.2%, the “Maximal inhibition of croton oil-induced ear oedema” value (Balb/c mice, 6 h) was “approximately 60%” and the Left ear m (left ear: 80% 2HPβCD + 20% DMSO (uninflamed), 6 h) was 0.0360 g. For the same molecule, the Right ear m (right ear: substance + croton oil after 30 min, 6 h) was 0.0519 g.
